Assay [1] relates to HepG2 cells. Briefly: ApoB-100 secretion in HepG2 cells (ELISA). Type of assay: cell-based, human. Conditions: compound 13 100 nM, atorvastatin 1 nM, ALK3-Fc 400 ng/mL. The protocol: Hepatoma G2 (HepG2) cells and human aortic endothelial cells (HAECs) were purchased from the American type culture collection (Manassas, Va.). HepG2 cells were maintained in Eagle's Minimum Essential Medium (EMEM) supplemented with 10% fetal bovine serum, 100 units/ml of penicillin, 0.1 mg/ml of streptomycin and glutamine. HAECs were cultured in endothelial cell basal medium (EBM 2) supplemented with the EBM2 bullet kit (Lonza, Basel, Switzerland). For experiments, cells were seeded into 6 or 12-well plates (BD Falcon, Franklin Lakes, N.J.) at a concentration of 0.5×10^6 cells per 5 mL of media. HAECs were maintained in EBM 2 with 0.1% FBS without additional growth factors for all experiments. HepG2 cells were grown to 70% confluence before they were incubated in EMEM enriched with 0.1% FBS. ApoB-100 measurements were performed in supernatants from HepG2 that had been incubated in EMEM containing 0.5% bovine serum albumin using a commercially available Human ApoB-100 ELISA kit (Mabtech AB, Nacka Strand, Sweden). BMP2 protein measurements were performed in supernatants from HAECs that had been incubated in EBM2 containing 0.1% FBS using a BMP2 ELISA kit (R&D Systems).

Assay [2] concerns MGP−/− mice. Briefly: Aortic calcification in MGP−/− mice (Alizarin red, OsteoSense). Type of assay: in vivo. Conditions: for aortic tissue calcium (Alizarin red staining): 28 days old. As for the experimental part:
(§1) MGP−/− mice were treated with either vehicle or the small molecule BMP type I receptor inhibitor compound 13 (2.5 mg/kg once daily IP) from day 1 to 28. Compound 13 is used as a BMP inhibitor positive control compound in these experiments. Whole aortas were harvested for phospho-Smad 1/5/8 (P-Smad) immunohistochemistry, a marker of BMP signaling, and for Alizarin Red staining of calcium. Osteogenic activity in aortas was visualized ex vivo by the uptake of a fluorescent bisphosphonate imaging probe. MGP−/− mice were also treated with vehicle or compound 13 to ascertain if inhibition of BMP signaling could impact survival, using Kaplan-Meier and Cox regression analysis.
MGP−/− mice were treated with intraperitoneal (IP) injections of either vehicle or compound 13 at 2.5 mg/kg/day from day 1-28. At day 28, aortas were harvested for both histology and RNA isolation. […] To further quantify aortic calcium, a fluorescent bisphosphonate agent that specifically binds to hydroxyapatite (OsteoSense 680 nm, Perkin Elmer) was used. (Aikawa E, et al. Multimodality molecular imaging identifies proteolytic and osteogenic activities in early aortic valve disease. Circulation. 2007; 115(3):377-386 and Zaheer A, et al. In vivo near-infrared fluorescence imaging of osteoblastic activity. Nature biotechnology. 2001; 19(12):1148-1154.) MGP−/− mice at 27 days of age treated with vehicle or compound 13 received OsteoSense via tail vein, and 24 h later, aortas were harvested for imaging. […] The reduction in BMP signaling and aortic calcification observed with compound 13 treatment of MGP−/− mice was associated with a >5-fold reduction in aortic Wnt3a gene expression, implicating the Wnt signaling pathway as an important mediator of BMP-dependent osteogenic differentiation (P<0.01).
MGP−/− mice were treated with vehicle (n=7), compound 13 (2.5 mg/kg/day IP, n=6), or ALK3-Fc (2 mg/kg QOD IP, n=4) beginning on day 1 after birth. At day 27, mice were injected via the tail vein with a fluorescent bisphosphonate probe (Osteosense 680 nm, 2 nmol per mouse) that targets tissue calcification. Twenty-four hours later, aortae were harvested and imaged.

Assay [3] relates to MGP−/− mice. The assay is described as follows: Survival of MGP−/− mice. Conditions: 2.5 mg/kg/day IP from day 1, n=10 in each group. Type of assay: in vivo. The protocol: as §1
Twenty MGP−/− mice were treated either with vehicle (n=10) or compound 13 (2.5 mg/kg/day IP, n=10) beginning at day 1 of life and followed for survival.

The subject of assay [4] is constitutively-active mutant form of ALK2. Briefly: Mouse model of FOP (constitutively-active mutant ALK2). The conditions noted are these: 3 mg/kg ip twice daily. Type of assay: in vivo. The text has this:
A mouse model of FOP has been developed in which expression of a constitutively-active mutant form of ALK2 is induced by injecting the popliteal fossa of a genetically-modified mouse with an adenovirus directing expression of Cre recombinase. This model reproduces the ectopic calcification and disability seen in FOP patients.

“Also recorded” adds a separate entry of the source.

In the case of `c1ccc2c(-c3cnn4cc(-c5ccc(N6CCNCC6)cc5)cnc34)ccnc2c1` [Compound 13, 4-[6-(4-piperazin-1-ylphenyl)pyrazolo[1,5-a]pyrimidin-3-yl]quinoline], in assay [1] (BMP2 100 ng/mL), the “BMP2-induced ApoB-100 secretion” value is listed as “blocked; also recorded: prevented the BMP2-mediated induction of ApoB-100 secretion”. Besides, in assay [1], the “basal ApoB-100 secretion (absence of BMP2)” value is “reduced basal apolipoprotein B100 (ApoB-100) secretion; also recorded: inhibited ApoB-100 production”. The “aortic tissue calcium (Alizarin red staining)” value in assay [2] (treated from day 1) is given as “reduction in tissue calcium levels”. Moreover, the “aortic tissue calcium (Alizarin red staining)” value in assay [2] (treated from day 1, listed as compound 13) is given as “less calcification; also recorded: reduced vessel calcification”. In addition, the “arterial calcification by OsteoSense fluorescence” value in assay [2] (day 1-28, compound 13 2.5 mg/kg/day IP, ALK3-Fc 2 mg/kg QOD IP) was “reduction of arterial calcification; also recorded: marked reduction in arterial calcification; also recorded: reduces vascular calcification”. For the same molecule, the “reduction in aortic osteogenic activity compared to vehicle-treated controls” value in assay [2] (fluorescent bisphosphonate probe, n=6 in each group) was found to be 81%. Moreover, in assay [2] (vehicle 1.0±0.10), the “aortic osteogenic activity, normalized average intensity ±SEM” value was 0.19±0.05. In assay [3], the “Cox hazard ratio (survival)” value turned out to be 0.04 and the “survival compared to vehicle-treated controls” value is recorded as “improved survival”. In assay [4], the “ectopic calcification and disability” value is “prevented the ectopic calcification and disability”.

Values taken from US20140038953A1, “COMPOSITIONS AND METHODS FOR CARDIOVASCULAR DISEASE” (THE GENERAL HOSPITAL CORPORATION, priority 2011, published 2014).
